According to patent US20260200947A1, “FUSED CYCLIC COMPOUNDS AND USE THEREOF” (Jacobio Pharmaceuticals Co., Ltd., priority 2022, published 2026):

Key:
GppNp-KRAS G12V = GppNp-KRAS G12V (Homo sapiens, UniProt P01116, G12V); assay: biochemical
GDP-KRAS G12D = GDP-KRAS G12D (Homo sapiens, UniProt P01116, G12D); assay: biochemical
GDP-KRAS G12V = GDP-KRAS G12V (Homo sapiens, UniProt P01116, G12V); assay: biochemical
GppNp-KRAS G12D = GppNp-KRAS G12D (Homo sapiens, UniProt P01116, G12D); assay: biochemical
GppNp-KRAS G12D, sequence (P01116 1-169 isoform P01116-2 G12D): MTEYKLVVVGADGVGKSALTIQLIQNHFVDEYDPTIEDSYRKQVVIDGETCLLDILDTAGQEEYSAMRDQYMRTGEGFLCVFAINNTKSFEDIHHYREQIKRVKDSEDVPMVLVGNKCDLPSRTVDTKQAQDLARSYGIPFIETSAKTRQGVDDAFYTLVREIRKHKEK

GDP-KRAS G12D, sequence (P01116 1-169 isoform P01116-2 G12D): as above
GDP-KRAS G12V, sequence (P01116 1-169 isoform P01116-2 G12V): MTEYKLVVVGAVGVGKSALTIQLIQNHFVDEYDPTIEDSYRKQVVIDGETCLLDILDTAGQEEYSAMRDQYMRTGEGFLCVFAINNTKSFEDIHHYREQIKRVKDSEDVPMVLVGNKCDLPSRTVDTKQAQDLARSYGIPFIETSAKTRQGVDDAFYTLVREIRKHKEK
GppNp-KRAS G12V, sequence (P01116 1-169 isoform P01116-2 G12V): as above

| IC50 (SW620 cells (K-Ras G12V)) | Structure (SMILES) | IC50 (GppNp-KRAS G12V) | IC50 (GDP-KRAS G12D) | IC50 (GDP-KRAS G12V) | IC50 (GppNp-KRAS G12D) |
| --- | --- | --- | --- | --- | --- |
|  | C[C@H]1CCOC[C@H]2COc3c(Cl)c(-c4ccc(F)c5sc(N)c(C#N)c45)c(F)c4nc(OC[C@@]56CCCN5C[C@H](F)C6)nc(c34)N21 (atropisomer, axis not shown) [Compound 158A] | 0.00493 µM | 0.000996 µM | 0.000939 µM | 0.0108 µM |
|  | N#Cc1c(N)sc2c(F)ccc(-c3c(F)c4c5c(nc(OC[C@@]67CCCN6C[C@H](F)C7)nc5c3F)N3CCCOC[C@H]3CO4)c12 (single isomer, unassigned) [Compound 163A] | > 1 µM | 0.301 µM | 0.423 µM | > 1 µM |
|  | C#Cc1c(F)ccc2cc(N)cc(-c3nc4c5c(nc(OC[C@@]67CCCN6C[C@H](F)C7)nc5c3F)N3CC(C)COC[C@H]3CO4)c12 (stereo partly shown) [Compound 16] | > 1 µM | 0.0297 µM | 0.0152 µM | 0.651 µM |
|  | C#Cc1c(F)ccc2cc(N)cc(-c3nc4c5c(nc(OC[C@@H]6CCN6CC(F)F)nc5c3F)N3CCCOC[C@H]3CO4)c12 [Compound 23] |  | 0.03 µM | 0.0362 µM |  |
|  | C#Cc1c(F)ccc2cc(N)cc(-c3nc4c5c(nc(OC[C@@]67CCCN6C[C@H](F)C7)nc5c3F)N3CCCC(F)(F)C3CO4)c12 (stereo partly shown) [Compound 28] |  | 0.013 µM | 0.0181 µM |  |
| 0.436 µM | C#Cc1c(F)ccc2cc(N)cc(-c3nc4c5c(nc(OC[C@@]67CCCN6C[C@H](F)C7)nc5c3F)N3CC(C)(O)CC[C@H]3CO4)c12 (stereo partly shown) [Compound 30] |  |  |  |  |
|  | C#Cc1c(F)ccc2cc(N)cc(-c3nc4c5c(nc(OC[C@@]67CCCN6C[C@H](F)C7)nc5c3F)N3C(C(F)F)CCOCC3N4C)c12 (stereo partly shown) [Compound 52] | 0.363 µM | 0.00283 µM | 0.00134 µM | 0.146 µM |
|  | C#Cc1c(F)ccc2cc(N)cc(-c3nc4c5c(nc(OC[C@@]67CCCN6C[C@H](F)C7)nc5c3F)N3CCCOCC3N4C(C)=O)c12 (stereo partly shown) [Compound 78] | > 1 µM | 0.0213 µM | 0.01 µM | > 1 µM |
|  | C#Cc1c(F)ccc2cc(N)cc(-c3nc4c5c(nc(OC[C@@]67CCCN6C[C@H](F)C7)nc5c3F)N3CCCC=C(F)C3N4C)c12 (stereo partly shown) [Compound 80] | > 1 µM | 0.0106 µM | 0.0122 µM | 0.314 µM |
|  | C#Cc1c(F)ccc2cc(N)cc(-c3nc4c5c(nc(OC[C@@]67CCCN6C[C@H](F)C7)nc5c3F)N3CCC(F)(F)CCC3N4C)c12 (stereo partly shown) [Compound 81] | > 1 µM | 0.0788 µM | 0.0893 µM | > 1 µM |
|  | C#Cc1c(F)ccc2cc(N)cc(-c3nc4c5c(nc(OC[C@@]67CCCN6C[C@H](F)C7)nc5c3F)N3CCCC(O)CC3N4C)c12 (stereo partly shown) [Compound 87] | > 1 µM | 0.0333 µM | 0.0299 µM | 0.882 µM |
|  | C#Cc1c(F)ccc2cc(N)cc(-c3nc4c5c(nc(OC[C@@]67CCCN6C[C@H](F)C7)nc5c3F)N3C(C5CCC5)CCOCC3N4C)c12 (stereo partly shown) [Compound 105] | > 1 µM | 0.0441 µM | 0.0195 µM | > 1 µM |
|  | C#Cc1c(F)ccc2cc(N)cc(-c3nc4c5c(nc(OC[C@@]67CCCN6C[C@H](F)C7)nc5n5c(n4C)=CC=CCC5)c3F)c12 [Compound 112] | > 1 µM | 0.0334 µM | 0.0216 µM | 0.921 µM |
|  | C#Cc1c(F)ccc2cc(N)cc(-c3nc4c5c(nc(OC[C@@]67CCCN6C[C@H](F)C7)nc5c3F)N3C(COCCN3C)N4C)c12 (stereo partly shown) [Compound 118] | > 1 µM | 0.0112 µM | 0.0117 µM |  |
|  | C#Cc1c(F)ccc2cc(N)cc(-c3nc4c5c(nc(OC[C@@]67CCCN6C[C@H](F)C7)nc5c3F)N3CC(F)CC[C@H](F)[C@H]3N4C)c12 (stereo partly shown) [Compound 134] | 0.0504 µM | 0.00175 µM | 0.00144 µM | 0.0216 µM |
|  | N#Cc1c(N)sc2c(F)ccc(-c3cc4c5c(nc(OC[C@@]67CCCN6C[C@H](F)C7)nc5c3F)N3CCCCC[C@H]3CO4)c12 [Compound 139] | > 1 µM | 0.0196 µM | 0.0216 µM |  |
